Values quoted from earlier work as cited in patent US7928052B2, “Enzyme stabilization” (Dow Global Technologies LLC, priority 2004, dated 2011).

K1, complexation constant B(OH)3+H2L⇄[1:1]−+H3O+ (H2L is fully protonated lactic acid): 1.8×10^−3
K1′, complexation constant B(OH)3+HL−⇄[1:1]−+H2O (pH 4 to about pH 10, lactic acid having lost a proton): 9.0 M⁻¹
Structure (SMILES): CC(O)C(=O)O (centres unmarked) [lactic acid]
